Data: PubChem BioAssay AID2060493 (Molecular Pharmacology Branch, DTP, NCI, 2025)
pIC50: −log10 of the molar value.

Tested on: 616215-338-R-J1-PDC tumor spheroids, viability
Test: Anticancer human tumor 616215-338-R-J1-PDC patient-derived colon adenocarcinoma cell line growth inhibition [GQUAD]
Settings: spheroids with HUVEC and MSC; for pIC50: curve of first compound; for viability, T/C: stronger effect = lower value
How it was run: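 Multi-cell-type spheroids of tumor cells with HUVEC and mesenchymal stem cells, treated with drug combinations. Concentrations descend in half-log steps from near clinical Cmax, or from 10 microM where Cmax is unknown; viability read-out.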

[1] = second compound 0.0316 µM, first compound 0.0316 µM
[2] = second compound 0.0316 µM, first compound 0.1 µM
[3] = second compound 0.0316 µM, first compound 0.316 µM
[4] = second compound 0.0316 µM, first compound 1 µM
[5] = second compound 0.0316 µM, first compound 3.16 µM
[6] = second compound 0.0316 µM, first compound 10 µM
[7] = second compound 0.1 µM, first compound 0.0316 µM
[8] = second compound 0.1 µM, first compound 0.1 µM
[9] = second compound 0.1 µM, first compound 0.316 µM
[10] = second compound 0.1 µM, first compound 1 µM
[11] = second compound 0.1 µM, first compound 3.16 µM
[12] = second compound 0.1 µM, first compound 10 µM
[13] = second compound 0.316 µM, first compound 0.0316 µM
[14] = second compound 0.316 µM, first compound 0.1 µM
[15] = second compound 0.316 µM, first compound 0.316 µM
[16] = second compound 0.316 µM, first compound 1 µM
[17] = second compound 0.316 µM, first compound 3.16 µM
[18] = second compound 0.316 µM, first compound 10 µM
[19] = second compound 1 µM, first compound 0.0316 µM
[20] = second compound 1 µM, first compound 0.1 µM
[21] = second compound 1 µM, first compound 0.316 µM
[22] = second compound 1 µM, first compound 1 µM
[23] = second compound 1 µM, first compound 3.16 µM
[24] = second compound 1 µM, first compound 10 µM
[25] = second compound 3.16 µM, first compound 0.0316 µM
[26] = second compound 3.16 µM, first compound 0.1 µM
[27] = second compound 3.16 µM, first compound 0.316 µM
[28] = second compound 3.16 µM, first compound 1 µM
[29] = second compound 3.16 µM, first compound 3.16 µM
[30] = second compound 3.16 µM, first compound 10 µM
[31] = second compound 10 µM, first compound 0.0316 µM
[32] = second compound 10 µM, first compound 0.1 µM
[33] = second compound 10 µM, first compound 0.316 µM
[34] = second compound 10 µM, first compound 1 µM
[35] = second compound 10 µM, first compound 3.16 µM
[36] = second compound 10 µM, first compound 10 µM
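Note: spheroids exposed to agents for 7 days before readout.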
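Throughout, for viability, T/C: percent viability relative to DMSO vehicle control wells taken as 100%.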

CC(=O)O[C@H]1C(=O)[C@@]2(C)[C@H]([C@H](OC(=O)c3ccccc3)[C@]3(O)C[C@H](OC(=O)[C@H](O)[C@@H](NC(=O)c4ccccc4)c4ccccc4)C(C)=C1C3(C)C)[C@]1(OC(C)=O)CO[C@@H]1C[C@@H]2O + Cc1cnc(CNC(=O)c2c(=O)c3ccc(N4CCCN(C)CC4)nc3n3c2sc2ccccc23)cn1
pIC50 (second compound 0.0316 µM): > 7.50
pIC50 (second compound 0.1 µM): > 7.50
pIC50 (second compound 0.316 µM): > 7.50
pIC50 (second compound 1 µM): > 7.50
pIC50 (second compound 3.16 µM): > 7.50
pIC50 (second compound 10 µM): > 7.50
viability, T/C [1]: 37.2%
viability, T/C [2]: 24.9%
viability, T/C [3]: 20.3%
viability, T/C [4]: 15.9%
viability, T/C [5]: 27.6%
viability, T/C [6]: 17.1%
viability, T/C [7]: 26.9%
viability, T/C [8]: 35.8%
viability, T/C [9]: 31.1%
viability, T/C [10]: 26.7%
viability, T/C [11]: 26.2%
viability, T/C [12]: 32%
viability, T/C [13]: 37%
viability, T/C [14]: 34.4%
viability, T/C [15]: 38.5%
viability, T/C [16]: 36.4%
viability, T/C [17]: 39.4%
viability, T/C [18]: 24.7%
viability, T/C [19]: 22.9%
viability, T/C [20]: 35.4%
viability, T/C [21]: 30.1%
viability, T/C [22]: 37.9%
viability, T/C [23]: 30.2%
viability, T/C [24]: 33.8%
viability, T/C [25]: 26.6%
viability, T/C [26]: 21.6%
viability, T/C [27]: 28.9%
viability, T/C [28]: 35.8%
viability, T/C [29]: 22.5%
viability, T/C [30]: 30.2%
viability, T/C [31]: 25%
viability, T/C [32]: 22.3%
viability, T/C [33]: 27.9%
viability, T/C [34]: 25%
viability, T/C [35]: 24.4%
viability, T/C [36]: 25.8%

CC(C)n1c(=O)n(C)c2cnc3cc(F)c(-c4ccc(OCCCN5CCCCC5)nc4)cc3c21 + Cc1cnc(CNC(=O)c2c(=O)c3ccc(N4CCCN(C)CC4)nc3n3c2sc2ccccc23)cn1
pIC50 (second compound 0.0316 µM): 5.27
pIC50 (second compound 0.1 µM): 7.50
pIC50 (second compound 0.316 µM): > 7.50
pIC50 (second compound 1 µM): > 7.50
pIC50 (second compound 3.16 µM): > 7.50
pIC50 (second compound 10 µM): > 7.50
viability, T/C [1]: 82%
viability, T/C [2]: 62%
viability, T/C [3]: 47.6%
viability, T/C [4]: 69.5%
viability, T/C [5]: 64%
viability, T/C [6]: 33.9%
viability, T/C [7]: 48.3%
viability, T/C [8]: 48.5%
viability, T/C [9]: 52.2%
viability, T/C [10]: 34%
viability, T/C [11]: 36.9%
viability, T/C [12]: 28.8%
viability, T/C [13]: 40.6%
viability, T/C [14]: 43.3%
viability, T/C [15]: 53.8%
viability, T/C [16]: 38.5%
viability, T/C [17]: 46.8%
viability, T/C [18]: 13.4%
viability, T/C [19]: 28.3%
viability, T/C [20]: 36.1%
viability, T/C [21]: 29.9%
viability, T/C [22]: 28.2%
viability, T/C [23]: 34.3%
viability, T/C [24]: 30.5%
viability, T/C [25]: 22.5%
viability, T/C [26]: 25.6%
viability, T/C [27]: 32.1%
viability, T/C [28]: 23.2%
viability, T/C [29]: 26.9%
viability, T/C [30]: 8.45%
viability, T/C [31]: 31.1%
viability, T/C [32]: 41.4%
viability, T/C [33]: 19.9%
viability, T/C [34]: 31.9%
viability, T/C [35]: 24.1%
viability, T/C [36]: 19.2%

CCCS(=O)(=O)Nc1ccc(F)c(C(=O)c2c[nH]c3ncc(-c4ccc(Cl)cc4)cc23)c1F + CN(C)c1ccc(Nc2c3ccc(NC(=O)CCN4CCCC4)cc3nc3cc(NC(=O)CCN4CCCC4)ccc23)cc1
pIC50 (second compound 0.0316 µM): 5.25
pIC50 (second compound 0.1 µM): 5.27
pIC50 (second compound 0.316 µM): 5.27
pIC50 (second compound 1 µM): 5.23
pIC50 (second compound 3.16 µM): 5.29
pIC50 (second compound 10 µM): 5.42
viability, T/C [1]: 103%
viability, T/C [2]: 110%
viability, T/C [3]: 108%
viability, T/C [4]: 105%
viability, T/C [5]: 94.3%
viability, T/C [6]: 3.74%
viability, T/C [7]: 101%
viability, T/C [8]: 92.6%
viability, T/C [9]: 112%
viability, T/C [10]: 94.6%
viability, T/C [11]: 89.8%
viability, T/C [12]: 3.81%
viability, T/C [13]: 105%
viability, T/C [14]: 96.5%
viability, T/C [15]: 99.7%
viability, T/C [16]: 92%
viability, T/C [17]: 89.3%
viability, T/C [18]: 4.92%
viability, T/C [19]: 112%
viability, T/C [20]: 88.7%
viability, T/C [21]: 89.1%
viability, T/C [22]: 100%
viability, T/C [23]: 97.3%
viability, T/C [24]: 10.3%
viability, T/C [25]: 101%
viability, T/C [26]: 99.4%
viability, T/C [27]: 105%
viability, T/C [28]: 85.4%
viability, T/C [29]: 84.9%
viability, T/C [30]: 7.85%
viability, T/C [31]: 88.9%
viability, T/C [32]: 73.8%
viability, T/C [33]: 94%
viability, T/C [34]: 88%
viability, T/C [35]: 58.4%
viability, T/C [36]: 5.74%
